Experimental data taken from patent publication US20130045931A1 (priority 2010, published 2013).
pIC50: −log10 of the molar value.

Key:
[1] = test system: Staphylococcus aureus (ATCC 33593, methicillin-resistant); test: Antibacterial test, clinically relevant strains (Sahly et al. 2003)
Phytophthora infestans = assay type: cell-based; conditions: Phytophthora infestans (Isolate), 48 hours at 20° C. in the dark
[2] = test system: Propionibacterium acnes (DSM 1897); test: Antibacterial activity against causative agent of acne vulgaris; assay type: cell-based
[3] = test system: PAXF1657L (pancreatic tumor); test: Antiproliferative activity, propidium iodide fluorescence assay (Dengler et al. 1995); assay type: cell-based, human
[4] = test system: Staphylococcus aureus (ATCC 12600); test: Antibacterial test, clinically relevant strains (Sahly et al. 2003)
[5] = test system: Staphylococcus lentus (DSM 6672); test: Antibacterial growth inhibition (Lang et al. 2007)
[6] = test system: Staphylococcus epidermidis (Isolate, biofilm former); test: Antibacterial test, clinically relevant strains (Sahly et al. 2003)
[7] = test system: MAXF401NL (breast cancer); test: Antiproliferative activity, propidium iodide fluorescence assay (Dengler et al. 1995); assay type: cell-based, human
LXF529L (lung tumor) = test: as above; assay type: cell-based, human
[8] = test system: Pseudomonas aeruginosa (ATCC 10145); test: Antibacterial test, clinically relevant strains (Sahly et al. 2003); conditions: biofilm former
GXF251L (gastric tumor) = test: Antiproliferative activity, propidium iodide fluorescence assay (Dengler et al. 1995); assay type: cell-based, human
[9] = test system: intestinal tumor cell line HT29; test: CellTiter-Blue cell viability assay; assay type: cell-based, human
Description: (§1) To determine the proliferation and cytotoxicity in respect of the liver tumor cell line HepG2 and the intestinal tumor cell line HT29, the effect on the metabolic activity of the cells was studied by means of the CellTiter-Blue® cell viability assay as described by O'Brien et al. (2000 Investigation of the alamar blue (resazurin) fluorescent dye for the assessment of mammalian cell cytotoxicity. European Journal of Biochemistry 267: 5421-6).

[10] = test system: liver tumor cell line HepG2; test: CellTiter-Blue cell viability assay; assay type: cell-based, human
Description: as §1

[11] = test system: Bacillus subtilis (DSM 347); test: Antibacterial growth inhibition (Lang et al. 2007)
[12] = test system: Xanthomonas campestris (DSM 2405); assay type: cell-based
Gram-negative bacteria = conditions: cited from earlier work
Gram-positive bacteria = conditions: some Gram-positive bacteria; cited from earlier work

Row | Compound | pIC50 [1] | pIC50 (Phytophthora infestans) | pIC50 [2] | pIC50 [3] | pIC50 [4] | pIC50 [5] | pIC50 [6] | pIC50 [7] | pIC50 (LXF529L (lung tumor)) | pIC50 [8] | pIC50 (GXF251L (gastric tumor)) | pIC50 [9] | pIC50 [10] | pIC50 [11] | pIC50 [12] | activity against Gram-negative bacteria (Gram-negative bacteria) | activity against Gram-positive bacteria (Gram-positive bacteria)
1 | mayamycin | 5.90 | 4.82 | 4.51 | 6.82 | 5.60 | 5.10 | 6.51 | 6.54 | 6.80 | 5.60 | 6.70 | 6.52 | 6.70 | 5.10 | 4.52 |  | 
2 | Cc1cc2cc(O)c3c(c2c(O[C@@H]2C[C@H](N(C)C)[C@H](O)[C@@H](C)O2)c1[C@@H]1C[C@H](N(C)C)[C@@H](O)[C@H](C)O1)C(=O)c1cccc(O)c1C3=O [benzanthrin B] |  |  |  |  |  |  |  |  |  |  |  |  |  |  |  | not against Gram-negative bacteria | active against some Gram-positive bacteria
3 | Cc1cc2cc(O)c3c(c2c(O[C@@H]2C[C@H](N(C)C)[C@@H](O)[C@@H](C)O2)c1[C@@H]1C[C@H](N(C)C)[C@@H](O)[C@H](C)O1)C(=O)c1cccc(O)c1C3=O [benzanthrin A] |  |  |  |  |  |  |  |  |  |  |  |  |  |  |  | not against Gram-negative bacteria | active against some Gram-positive bacteria
